These results are taken from patent US20230146533A1, “KERATIN BD-10, PREPARATION METHOD THEREFOR AND PHARMACEUTICAL COMPOSITION AND USE THEREOF” (INSTITUTE OF MATERIA MEDICA, CHINESE ACADEMY OF MEDICAL …, priority 2019, published 2023).

Molecules are shown by their SMILES. Structures can show the parent of a compound that is named as a salt. Marks after values point to notes of the source that are not given here.

Assay [1] relates to lipopolysaccharide (LPS) induced fever in SD rats. The experiment in a line: Lipopolysaccharide (LPS) induced fever model in SD rats. The format is in vivo. The conditions noted are these: aspirin 300 mg/kg oral. As for the experimental part:
Animals: 230-260 grams of male SD rats; Drugs: lipopolysaccharide (LPS, SIGMA L-2880), aspirin (SIGMA A2093), protein BD-10; Instruments: electronic balance (SARTORIUS BP121S type), electronic clinical thermometer (CITIZEN CT-513W type).
Method: the method of intraperitoneal injection of Lipopolysaccharide to replicate rat fever model.
(§1) Preparation of experimental animals: After the experimental animals adapt to the experimental environment (temperature 22° C.±2° C., relative humidity 50%±2%) for 1 day. Pre-adaptation to measure rectal temperature at 8:00 and 15:00, rats were fasted and water was taken freely 12 h before experiment, and let the animal to empty its feces before measuring the rectal temperature. Apply petroleum jelly to the electronic thermometer probe before each temperature measurement. Insert the rat rectum 2 cm (can be marked at 2 cm to ensure that the depth of each insertion is consistent), and record the body temperature after the reading is stable.
Intraperitoneal injection of lipopolysaccharide to replicate rat fever model: The body temperature of the rats was measured before modeling. Qualified rats with a body temperature of 36.2-37.3° C. were selected and randomly divided into groups with 8 rats in each group. After oral administration of aspirin and different doses of protein BD-10, lipopolysaccharide (20 μg/kg, 2 ml/kg) was injected intraperitoneally immediately, and the normal control group was injected intraperitoneally with an equal volume of normal saline. The body temperatures of the rats were monitored after 2 hours for a total of 8 hours.
(§2) According to the body temperature measured at each time point on the day of the experiment, calculate the mean, standard deviation and standard error of the body temperature of each group of rats. The data of each group was compared with TTEST, and P<0.05 was considered as a significant difference.

The subject of assay [2] is yeast-induced fever model in rats. Kind of assay: Yeast-induced fever model in SD rats. The format is in vivo. The conditions noted are these: aspirin 300 mg/kg oral. As for the experimental part: Animals: 230-260 grams of male SD rats; Medicines: yeast (OXOID LP0021), aspirin (SIGMA A2093), protein BD-10; Instruments: electronic balance (SARTORIUS BP121S type), electronic clinical thermometer (CITIZEN CT-513W type). Experiment grouping: • Normal control group; • Model group: yeast fever model; • Positive control group: Aspirin 300 mg/kg group; • Protein BD-10, 10 mg/kg group, 50 mg/kg group.
as §1
Subcutaneous injection of dry yeast to replicate rat fever model: The body temperature of the rats was measured before modeling. Qualified rats with a body temperature of 36.2-37.3° C. were selected and randomly divided into groups with 8 rats in each group. After oral administration of aspirin and different doses of protein BD-10, 20% yeast suspension (10 ml/kg) was injected subcutaneously immediately, and the normal control group was injected intraperitoneally with an equal volume of normal saline. The body temperatures of the rats were monitored after 2 hours for a total of 8 hours.
as §2

For assay [3], the system named is acetic acid writhing of ICR mice. Kind of assay: Acetic acid writhing test in ICR mice. The format is in vivo. On the procedure:
Animals: male ICR mice; Drugs and reagents: aspirin, physiological saline, glacial acetic acid, protein BD-10. Experiment grouping: • Model group; • Aspirin 300 mg/kg group; • Protein BD-10, 50 mg/kg group, 200 mg/kg group.
One day after the experimental animals adapt to the environment, Aspirin 300 mg/kg, protein BD-10 50 mg/kg, 200 mg/kg were given orally one hour in advance, and the administration volume was 10 ml/kg; Then, 0.6% acetic acid solution was injected intraperitoneally, and the incubation period (seconds) and frequency of writhing in the animal was observed within 15 minutes.
Calculate the mean and standard error of the data in each group. Compared with the model group by TTEST, P<0.05 was considered as statistically different.
A general note: Writhing tests count abdominal constrictions after an irritant is injected.

Assay [4] relates to mice cough induced by ammonia water. Kind of assay: Antitussive test, cough induced by ammonia water in mice. It is filed as in vivo, ICR mice. On the procedure: Animals: male ICR mice; Drugs and reagents: dextromethorphan hydrobromide, ammonia water, 0.2% CMC-Na, protein BD-10; Apparatus: Compressed nebulizer (403T type), balance (XS105DU type). Experiment grouping: • Solvent control group; • Dextromethorphan 15 mg/kg group; • Protein BD-10, 20 mg/kg group, 50 mg/kg group.
Dextromethorphan and different doses of protein BD-10 (administration volume 10 ml/kg) were given orally in groups, and the solvent control group was given the same volume of distilled water. One hour later, mice were put into a sealed box and atomized 10% ammonia water for 10 seconds, and then observed and recorded the incubation period of cough in mice and the number of coughs in 2 minutes.
Record the time point of oral administration, the time point of atomization experiment, the incubation period of mice cough and the number of coughs within 2 minutes, respectively. The incubation period of cough refers to the number of seconds from the start of the atomization of ammonia to the occurrence of cough. The performance of coughing in mice is based on contraction of their abdominal muscles (breast contraction) and opening their mouths at the same time. Calculate the mean and standard error of each group of data, and use TTEST to compare the model group with other groups, and P<0.05 is considered as a significant difference.

Assay [5] concerns PLO-induced epilepsy in mice. The experiment in a line: Pilocarpine (PLO) induced convulsive epilepsy in mice. It is filed as in vivo, ICR mice. Set-up: mortality rate: unit not given here. The following applies: Diazepam 2 mg/kg, PLO 225 mg/kg i.p. As for the experimental part:
Animals: male ICR mice; Drugs: Pilocarpine HCl (PLO, pilocarpine, pilocarpine hydrochloride), Diazepam (diazepam tablets), protein BD-10.
Experiment grouping: • Model group: • Diazepam 2 mg/kg group; • Protein BD-10, 50 mg/kg group, 200 mg/kg group.
The drug was administered once in the afternoon the day before modeling, PLO-225 mg/kg (modeling agent) was injected intraperitoneally 1 hour after the test drug was administered intragastrically on the day of modeling. And positive drug can be administered once 20 minutes before modeling. Observe for 30 minutes after PLO injection.
Observation indicators: (1)Seizure situation: the time of seizures from Grade II to Grade IV; (2)the time to death.
(§3) Seizure grade: Refer to Racine grading standard: Grade 0: No response; Grade I: manifested as twitching of facial muscles or the corners of the mouth; Grade II: can nod; Grade III: twitching of one limb; Grade IV: rigidity or body twitching; Grade V: generalized epilepsy (generalized tonic seizures).
Count the number of Grade IV seizures and deaths in each group of mice in the experiment; Grade II, III and IV incubation period. […] Chi-square test was used for statistics of the number of cases. The mean value and standard error of the incubation period were calculated, and TTEST was used to compare the model group with other groups. P<0.05 was considered as a significant difference.

Assay [6] relates to PTZ-induced epilepsy in mice. Kind of assay: Pentylenetetrazole (PTZ) induced epilepsy in mice. It is filed as in vivo, ICR mice. The conditions noted are these: Retigabine 60 mg/kg, PTZ 65 mg/kg i.p. As for the experimental part:
Medicines: Pentylenetetrazol (PTZ), Retigabine, Protein BD-10.
Experiment grouping: • Model group; • Retigabine 60 mg/kg group; • Protein BD-10, 50 mg/kg group, 200 mg/kg group;
The drug was administered once in the afternoon the day before modeling, On the day of modeling, PTZ-65 mg/kg (modeling agent) was injected intraperitoneal 1 hour after the test drug was administered intragastrically, and the positive drug can be administered once half an hour before modeling. Continue to observe for 15 minutes after injection of PTZ.
Observation index: (1)Seizure situation: the time of seizures from Grade III to Grade VI; (2)Death situation
as §3
Count the cases of seizures and deaths in each group of mice in the experiment; Grade III and IV incubation period. The incubation period of mice that have not attacked to Grade IV is recorded as the maximum of 900 seconds. Chi-square test was used for statistics of the number of cases. Calculate the mean and standard error of the incubation period. Use TTEST to compare the model group with other groups, and P<0.05 is considered as a significant difference.

Setting [7] is: 2, 4, 6 and 8 hours after modeling, vs model group P<0.05.
Setting [8] is: 20% yeast suspension 10 ml/kg s.c., SD rats.
The mark [9] stands for this setting: aspirin 300 mg/kg oral one hour before 0.6% acetic acid i.p., observed within 15 minutes.

With `CC(=O)Oc1ccccc1C(=O)O` [aspirin, reference compound], the “Effect on body temperature of model rats (in words)” value in assay [1] (setting [7]) was “can effectively inhibit the increase in body temperature”. In assay [1] (LPS 20 μg/kg i.p., SD rats), the “Body temperature 2 hours after modeling” value amounted to 36.8 ± 0.1 °C, the “Body temperature 4 hours after modeling” value amounted to 36.9 ± 0.2 °C, the “Body temperature 6 hours after modeling” value was determined as 36.8 ± 0.2 °C and the “Body temperature 8 hours after modeling” value was 36.9 ± 0.1 °C. Besides, the “Effect on body temperature of model rats (in words)” value in assay [2] (setting [7]) is on record as “can effectively inhibit the increase in body temperature”. Also, in assay [2] (setting [8]), the “Body temperature 2 hours after modeling” value is 37.0 ± 0.1 °C, the “Body temperature 4 hours after modeling” value was 37.0 ± 0.1 °C, the “Body temperature 6 hours after modeling” value was 37.0 ± 0.1 °C and the “Body temperature 8 hours after modeling” value came out at 37.0 ± 0.1 °C. In addition, the “Effect on writhing incubation period and times of writhing (in words)” value in assay [3] (Aspirin 300 mg/kg, vs model group P<0.05) was “can significantly delay the incubation period of writhing and reduce the times of writhing”. For the same compound, in assay [3] (setting [9]), the Frequency of writhing was 15.2 ± 2.9 times and the Writhing incubation period turned out to be 290.3 ± 37.0 s.
Take `COc1ccc2c(c1)[C@]13CCCC[C@@H]1[C@H](C2)N(C)CC3` [Dextromethorphan, dextromethorphan hydrobromide, reference compound]: the “Incubation period (cough)” value in assay [4] (Dextromethorphan 15 mg/kg oral, 10% ammonia water atomized 10 seconds one hour later, X ± SEM) is given as 38.4 ± 4.5 s. The Number of coughs in assay [4] (Dextromethorphan 15 mg/kg oral, 10% ammonia water atomized 10 seconds one hour later, coughs within 2 minutes, X ± SEM) came to 34.0 ± 2.9. Moreover, the “Effect on incubation period and number of coughs (in words)” value in assay [4] (dextromethorphan 15 mg/kg group, vs solvent control group P<0.05) is recorded as “significant improvement”.
Regarding `CN1C(=O)CN=C(c2ccccc2)c2cc(Cl)ccc21` [Diazepam, reference compound], in assay [5] (10 mice), the “Grade IV seizure rate” value is on record as 0** % and the mortality rate was found to be 0. Moreover, in assay [5] (mean ± SEM), the “Grade II seizure incubation period” value was found to be 109 ± 8 s and the “Grade III seizure incubation period” value is recorded as 182 ± 14 s. Further, the “Grade IV seizure incubation period” value in assay [5] (mean ± SEM, mice not reaching Grade IV recorded as maximum 1800 seconds) came out at 1800 ± 0 s. Besides, the Cases of deaths in assay [5] (of 10 mice) was 0. Also, the “Cases of Grade IV” value in assay [5] (of 10 mice, 30 minutes observation) was 0**.
Regarding `CCOC(=O)Nc1ccc(NCc2ccc(F)cc2)cc1N` [Retigabine, reference compound], in assay [6] (10 mice), the “Grade IV seizure rate” value is reported as 20%** and the mortality rate came to 0%. In assay [6] (mean ± SEM), the “Grade III seizure incubation period” value worked out at 83 ± 7 s. Moreover, the “Grade IV seizure incubation period” value in assay [6] (mean ± SEM, mice not reaching Grade IV recorded as maximum 900 seconds) is on record as 745 ± 103 s. Moreover, the Cases of deaths in assay [6] (of 10 mice) came to 0. For the same compound, the “Cases of Grade IV” value in assay [6] (of 10 mice, 15 minutes observation) is 2**.
